Laboratory results taken from patent US9265773B2, “Tetracyclic heterocycle compounds and methods of use thereof for the treatment of viral diseases” (priority 2011, dated 2016).

What was measured:
HCV replicon genotype 1a = assay: microbe, parasite or virus in culture; type: cell-based; conditions: genotype 1a replicon cells, incubated 96 hours, NS3/4A ELISA readout
HCV replicon genotype 1b = assay: microbe, parasite or virus in culture; type: cell-based; conditions: genotype 1b replicon cells, incubated 96 hours, NS3/4A ELISA readout

| SMILES | IC50 (HCV replicon genotype 1a; Hepatitis C virus, 96 h) [nM] | IC50 (HCV replicon genotype 1b; Hepatitis C virus, 96 h) [nM] | IC50 (HCV replicon genotype 1a) [nM] | IC50 (HCV replicon genotype 1b) [nM] |
| --- | --- | --- | --- | --- |
| CNC(=O)c1c(-c2ccc(F)cc2)oc2cc(N(C)S(C)(=O)=O)c(-c3ccc4c(n3)-c3cc5c(F)cccc5n3C(CO)(CO)O4)cc12 [Compound 94] | 2.3 | 5.6 |  |  |
| CNC(=O)c1c(-c2ccc(F)cc2)oc2cc(N(C)S(C)(=O)=O)c(-c3ccc4c(n3)-c3cc5c(F)cccc5n3C(COC)O4)cc12 (stereo not shown) [Compound 95] | 3.2 | 5.3 |  |  |
| CNC(=O)c1c(-c2ccc(F)cc2)oc2cc(N(C)S(C)(=O)=O)c(-c3ccc4c(n3)-c3cc5c(F)cccc5n3C(COC)O4)cc12 (stereo not shown) [Compound 96] |  |  | 4.1 | 5.1 |
| CNC(=O)c1c(-c2ccc(F)cc2)oc2cc(N(C)S(C)(=O)=O)c(-c3ccc4c(n3)-c3cc5c(F)cccc5n3C3(COC3)O4)cc12 [Compound 97] | 2.9 | 4.4 |  |  |
| CNC(=O)c1c(-c2ccc(F)cc2)oc2cc(N(C)S(C)(=O)=O)c(-c3ccc4c(n3)-c3cc5c(F)cccc5n3C(CF)O4)cc12 (stereo not shown) [Compound 98, 5-(11-fluoro-6-(fluoromethyl)-6H-pyrido[2′,3′:5,6][1,3]oxazino[3,4-a]indol-2-yl)-2-(4-fluorophenyl)-N-methyl-6-(N-methylmethylsulfonamido)benzofuran-3-carboxamide] | 3.9 | 6.3 |  |  |
| CNC(=O)c1c(-c2ccc(F)cc2)oc2cc(N(C)S(C)(=O)=O)c(-c3ccc4c(n3)-c3cc5c(F)cccc5n3C(CCO)O4)cc12 (stereo not shown) [Compound 99, 5-(11-fluoro-6-(2-hydroxyethyl)-6H-pyrido[2′,3′:5,6][1,3]oxazino[3,4-a]indol-2-yl)-2-(4-fluorophenyl)-N-methyl-6-(N-methylmethylsulfonamido)benzofuran-3-carboxamide] | 1.9 | 4.6 |  |  |
| CNC(=O)c1c(-c2ccc(F)cc2)oc2cc(N(C)S(C)(=O)=O)c(-c3ccc4c(n3)-c3cc5c(F)cccc5n3C(CCO)O4)cc12 (stereo not shown) [Compound 100, 5-(11-fluoro-6-(2-hydroxyethyl)-6H-pyrido[2′,3′:5,6][1,3]oxazino[3,4-a]indol-2-yl)-2-(4-fluorophenyl)-N-methyl-6-(N-methylmethylsulfonamido)benzofuran-3-carboxamide] |  |  | 3.3 | 3.6 |
| CNC(=O)c1c(-c2ccc(F)cc2)oc2cc(N(C)S(C)(=O)=O)c(-c3ccc4c(n3)-c3cc5c(F)cccc5n3C(C(C)(C)O)O4)cc12 (stereo not shown) [Compound 101, 5-(11-fluoro-6-(2-hydroxypropan-2-yl)-6H-pyrido[2′,3′,5,6][1,3]oxazino[3,4-a]indol-2-yl)-2-(4-fluorophenyl)-N-methyl-6-(N-methylmethylsulfonamido)benzofuran-3-carboxamide] | 5.8 | 8.7 |  |  |
| CNC(=O)c1c(-c2ccc(F)cc2)oc2cc(N(C)S(C)(=O)=O)c(-c3ccc4c(n3)-c3cc5c(F)cccc5n3[C@H](COC(=O)[C@@H](N)C(C)C)O4)cc12 [Compound 102, (S)—((S)-11-fluoro-2-(2-(4-fluorophenyl)-3-(methylcarbamoyl)-6-(N-methylmethylsulfonamido)benzofuran-5-yl)-6H-pyrido[2′,3′:5,6][1,3]oxazino[3,4-a]indol-6-yl)methyl 2-amino-3-methylbutanoate] | 3.9 | 4.3 |  |  |
| CNC(=O)c1c(-c2ccc(F)cc2)oc2cc(N(C)S(C)(=O)=O)c(-c3ccc4c(n3)-c3cc5c(F)cccc5n3C(COC(=O)[C@@H](NC(=O)OC)C(C)C)O4)cc12 (stereo partly shown) [Compound 103] | 3.3 | 6.9 |  |  |
| CNC(=O)c1c(-c2ccc(F)cc2)oc2cc(N(C)S(C)(=O)=O)c(-c3ccc4c(n3)-c3cc5c(F)cccc5n3C(COC(=O)[C@@H]3CCCN3C(=O)OC)O4)cc12 (stereo partly shown) [Compound 104] | 2.4 | 4.8 |  |  |
| CNC(=O)c1c(-c2ccc(F)cc2)oc2cc(N(C)S(C)(=O)=O)c(-c3ccc4c(n3)-c3cc5c(F)cccc5n3C(C(N)=O)O4)cc12 (stereo not shown) [Compound 105, 11-fluoro-2-(2-(4-fluorophenyl)-3-(methylcarbamoyl)-6-(N-methylmethylsulfonamido)benzofuran-5-yl)-6H-pyrido[2′,3′:5,6][1,3]oxazino[3,4-a]indole-6-carboxamide] |  |  | 1.4 | 0.9 |
| CNC(=O)c1c(-c2ccc(F)cc2)oc2cc(N(C)S(C)(=O)=O)c(-c3ccc4c(n3)-c3cc5c(F)cccc5n3C(C(N)=O)O4)cc12 (stereo not shown) [Compound 106, 11-fluoro-2-(2-(4-fluorophenyl)-3-(methylcarbamoyl)-6-(N-methylmethylsulfonamido)benzofuran-5-yl)-6H-pyrido[2′,3′:5,6][1,3]oxazino[3,4-a]indole-6-carboxamide] |  |  | 5.5 | 2.4 |
| CCNC(=O)C1Oc2ccc(-c3cc4c(C(=O)NC)c(-c5ccc(F)cc5)oc4cc3N(C)S(C)(=O)=O)nc2-c2cc3c(F)cccc3n21 (stereo not shown) [Compound 107] |  |  | 1.5 | 0.7 |
| CCNC(=O)C1Oc2ccc(-c3cc4c(C(=O)NC)c(-c5ccc(F)cc5)oc4cc3N(C)S(C)(=O)=O)nc2-c2cc3c(F)cccc3n21 (stereo not shown) [Compound 108] |  |  | 14 | 2.4 |
| CNC(=O)c1c(-c2ccc(F)cc2)oc2cc(N(C)S(C)(=O)=O)c(-c3ccc4c(n3)-c3cc5c(F)cccc5n3C(C(=O)NC)O4)cc12 (stereo not shown) [Compound 109] | 2 |  |  | 2.1 |
| CNC(=O)c1c(-c2ccc(F)cc2)oc2cc(N(C)S(C)(=O)=O)c(-c3ccc4c(n3)-c3cc5c(F)cccc5n3C(C(=O)NC)O4)cc12 (stereo not shown) [Compound 110] |  |  | 3 | 4.8 |
| CNC(=O)c1c(-c2ccc(F)cc2)oc2cc(N(C)S(C)(=O)=O)c(-c3ccc4c(n3)-c3cc5c(F)cccc5n3C(C(=O)NC(C)C)O4)cc12 (stereo not shown) [Compound 111] | 4.5 | 4.3 |  |  |
| CNC(=O)c1c(-c2ccc(F)cc2)oc2cc(N(C)S(C)(=O)=O)c(-c3ccc4c(n3)-c3cc5c(F)cccc5n3C(C(=O)O)O4)cc12 (stereo not shown) [Compound 112] | 20 | 23 |  |  |
| CCOC(=O)C1Oc2ccc(-c3cc4c(C(=O)NC)c(-c5ccc(F)cc5)oc4cc3N(C)S(C)(=O)=O)nc2-c2cc3c(F)cccc3n21 (stereo not shown) [Compound 113] | 32 | 29 |  |  |
| CNC(=O)c1c(-c2ccc(F)cc2)oc2cc(N(C)S(C)(=O)=O)c(-c3ccc4c(n3)-c3cc5c(F)cccc5n3C(CN)O4)cc12 (stereo not shown) [Compound 114, 5-(6-(aminomethyl)-11-fluoro-6H-pyrido[2′,3′:5,6][1,3]oxazino[3,4-a]indol-2-yl)-2-(4-fluorophenyl)-N-methyl-6-(N-methylmethylsulfonamido)benzofuran-3-carboxamide] | 7.3 | 18 |  |  |
| CNC(=O)c1c(-c2ccc(F)cc2)oc2cc(N(C)S(C)(=O)=O)c(-c3ccc4c(n3)-c3cc5c(F)cccc5n3C(CN)O4)cc12 (stereo not shown) [Compound 115, 5-(6-(aminomethyl)-11-fluoro-6H-pyrido[2′,3′:5,6][1,3]oxazino[3,4-a]indol-2-yl)-2-(4-fluorophenyl)-N-methyl-6-(N-methylmethylsulfonamido)benzofuran-3-carboxamide] |  |  | 8.9 | 19 |
| CNC(=O)c1c(-c2ccc(F)cc2)oc2cc(N(C)S(C)(=O)=O)c(-c3ccc4c(n3)-c3cc5c(F)cccc5n3C(CNCC(=O)O)O4)cc12 (stereo not shown) [Compound 116, 2-(((11-fluoro-2-(2-(4-fluorophenyl)-3-(methylcarbamoyl)-6-(N-methylmethylsulfonamido)benzofuran-5-yl)-6H-pyrido[2′,3′:5,6][1,3]oxazino[3,4-a]indol-6-yl)methyl)amino)acetic acid] | 53 | 9.4 |  |  |
